The conditions of data set [1]: wild type mice, dynamic PET, by 10 min post-injection; cited from earlier work.
The next data set concerns ASO-TCO conjugate. The conditions noted are these: rats given ASO-TCO intrathecally, tracer i.v. 24 and 168 hours later, static PET-CT 75-90 minutes after tracer; cited from earlier work.
Data set [2] can be described thus: Stability of the tetrazine moiety in ascorbate formulation. The data set is classed as physicochemical.
Data set [3] can be described thus: Dynamic micro PET-CT imaging, tracer uptake in brain, muscle and bone. Particulars: CD-1 male mice; for Clearance from the brain: by 60 minutes post injection, relative to muscle; for Crossing of the blood-brain-barrier / Peak brain uptake / Time of peak brain uptake post injection: dynamic PET; for Peak brain uptake / Time of peak brain uptake post injection: i.v. It is filed as in vivo, CD-1 mice. The protocol: (§1) A Siemens Inveon® Multimodality Scanner (Siemens, Germany) is used for micro PET-CT imaging. Male CD-1 (6-week-old, ˜30 g) mice are anesthetized with 3% isoflurane/97% oxygen and placed on the bed of the scanner. The mice are administered [^18F]N-(4-(1,2,4,5-tetrazin-3-yl)benzyl)-2-fluoronicotinamide via a bolus intravenous tail vein injection (˜350 ρCi in a total volume of 150 μL saline). A total of four dynamic PET scans are conducted, followed by a short high-resolution CT scan for anatomical registration. PET images are generated for each minute of the acquisition time. Uptake of the tracer in the brain, muscle, and bone are determined by visually drawing regions of interest (ROIs) based on the fused PET/CT images and the corresponding activity values are determined using the Inveon® Research Workplace software. All values are represented as % injected dose per gram (% ID/g).
as §1, with “g) mice were anesthetized with” for “g) mice are anesthetized with”, “are administered [^18F]N-(4-(1,2,4,5-tetrazin-3-yl)benzyl)-6-fluoropicolinamide via a” for “are administered [^18F]N-(4-(1,2,4,5-tetrazin-3-yl)benzyl)-2-fluoronicotinamide via a”, “vein injection (˜300 ρCi in” for “vein injection (˜350 ρCi in”
as §1, with “PET/CT” for “PET-CT”, “30-40” for “˜30”, “[^18F]N-(4-(1,2,4,5-tetrazin-3-yl)benzyl)-6-fluoronicotinamide” for “[^18F]N-(4-(1,2,4,5-tetrazin-3-yl)benzyl)-2-fluoronicotinamide”, “(˜300” for “(˜350”, “two” for “four”

Setting [4] is: listed as [^18F]N-(4-(1,2,4,5-tetrazin-3-yl)benzyl)-2-fluoronicotinamide.

SMILES strings stand for the structures. Several values for one entry are separate records, joined by “and”; a condition that tells them apart may be missing. Identical values can stand only once. Entries after “also recorded” stand apart in the source; their conditions may differ.

In the case of `O=C(Cc1ccc(-c2nncnn2)cc1)NCC[18F]` [[^18F]537-Tz, 2-(4-(1,2,4,5-tetrazin-3-yl)phenyl)-N-(2-fluoroethyl)acetamide], in data set [1], the Brain uptake is 1.7±0.9 % ID. Moreover, the “Radiotracer uptake in brain and spine relative to the control group” value in the data set on ASO-TCO conjugate is reported as “Higher radiotracer uptake”.
For the molecule `O=C(NCc1ccc(-c2nncnn2)cc1)c1cccc(F)n1` [Example 3, N-(4-(1,2,4,5-tetrazin-3-yl)benzyl)-6-fluoropicolinamide], in data set [2], the “Reduction of the tetrazine moiety by ascorbate formulation” value is on record as “readily reduced”.
In the case of `O=C(NCc1ccc(-c2nncnn2)cc1)c1cccnc1[18F]` [Example 2, [^18F]N-(4-(1,2,4,5-tetrazin-3-yl)benzyl)-2-fluoronicotinamide], the “Bone uptake throughout the scan period (defluorination)” value in data set [3] (60-min scan) is “remained low”. Besides, the “Uptake throughout the periphery of the body (liver, kidneys, heart)” value in data set [3] (PET) is recorded as “observed”. Further, the “Brain uptake after steady clearance of tracer” value in data set [3] (at 59.5 min post injection) worked out at 1.2 % ID/g. For the same molecule, in data set [3], the “Clearance from the brain” value is recorded as “baseline levels defined by uptake in the muscle”, the “Crossing of the blood-brain-barrier” value is reported as “readily cross the blood-brain-barrier”, the Peak brain uptake stood at 3.3±0.4 % ID/g and the “Time of peak brain uptake post injection” value is recorded as “approximately 2 min”. In data set [3] (setting [4]), the “Clearance from the brain” value is given as “near background levels (muscle)”; the Peak brain uptake was 3.3±0.4 % ID/g and 3.3 % ID/g; the “Time of peak brain uptake post injection” value is recorded as 4.5 min; the “Crossing of the blood-brain-barrier” value was “readily cross the blood-brain-barrier; also recorded: readily crosses the blood-brain-barrier”. Besides, the “Reduction of the tetrazine moiety by ascorbate formulation” value in data set [2] is “readily reduced”.
